Laboratory results: US20160346249A1 (priority 2012, published 2016)

Experiments:
[1] = Male rat fertility study
Experimental: Physical signs, body weight, and food consumption were recorded periodically. Males were housed for up to 10 nights 1:1 with untreated females following approximately 10 weeks of treatment. Mating was confirmed by daily examination of females for the presence of a vaginal copulatory plug or sperm in a vaginal lavage. The day of observing a seminal plug and/or sperm was considered GD 0. Females were euthanized on GD 15, 16, or 17 and the uterus of each female rat was examined to determine pregnancy status. Corpora lutea per female were counted. Uterine implantations were counted, and each was classified as a live fetus, dead fetus, or a resorption. At termination, the left cauda epididymis from males were weighed, and frozen. Subsequently, these tissues were prepared and analyzed for sperm number. At necropsy, a sperm suspension from the mid-region of the left vas deferens of each male was prepared and evaluated for percent motile sperm (from ≧150 cells per male).

[2] = Single-dose (25 mg) gender study in males and females (DOV-947-005); type: in vivo, human; details: for AUC(0-inf) / AUC(0-t) / Cmax / Tmax / half-life: human, in vivo, single oral dose 25 mg
[3] = biological target: T1, serotonin transporters (SERT) in the human brain (Homo sapiens, UniProt P31645); assay: Open label PET study with [11C]DASB (DOV 947-007); type: in vivo; details: for brain SERT occupancy: 150 mg single oral dose; for Mean (Range) SERT Occupancy, Mean / Mean (Range) SERT Occupancy, Striatum / Mean (Range) SERT Occupancy, Thalamus: EB-1010 150 mg single oral, N = 3, preliminary
T1 construct: from tissue; host or cells: brain of healthy male volunteers, in vivo PET with [11C]DASB
Text: With PET imaging, uptake inhibitor effects may be measured based on the proportion of SERT sites blocked in the brain. […] Safety was monitored by clinical and laboratory evaluations, including vital signs, physical examination, clinical chemistry, hematology, urinalysis, and ECG.

[4] = 14-day mouse toxicity and toxicokinetic study; details: both, Crl:CD-1(ICR) BR, in vivo, po

T1 sequence (P31645 whole entry): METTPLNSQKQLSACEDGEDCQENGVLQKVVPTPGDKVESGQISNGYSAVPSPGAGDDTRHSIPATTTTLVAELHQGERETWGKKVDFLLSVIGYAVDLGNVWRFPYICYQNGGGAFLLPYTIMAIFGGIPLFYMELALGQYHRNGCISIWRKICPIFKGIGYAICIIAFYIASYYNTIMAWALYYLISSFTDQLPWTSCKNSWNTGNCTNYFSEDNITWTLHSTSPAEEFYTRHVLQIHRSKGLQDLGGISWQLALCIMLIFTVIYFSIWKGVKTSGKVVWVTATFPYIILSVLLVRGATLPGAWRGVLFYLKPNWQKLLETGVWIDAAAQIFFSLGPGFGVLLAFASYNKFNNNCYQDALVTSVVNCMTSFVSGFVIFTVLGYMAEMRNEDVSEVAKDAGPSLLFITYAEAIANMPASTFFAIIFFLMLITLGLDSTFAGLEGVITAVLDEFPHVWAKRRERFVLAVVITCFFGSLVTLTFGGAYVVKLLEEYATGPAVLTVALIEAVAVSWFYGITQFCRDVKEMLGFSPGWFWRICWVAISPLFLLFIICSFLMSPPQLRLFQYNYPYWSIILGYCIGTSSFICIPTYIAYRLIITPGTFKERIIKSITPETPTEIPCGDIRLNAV

SMILES: Clc1ccc([C@]23CNC[C@H]2C3)cc1Cl [amitifadine, (+)-1-(3,4-dichlorophenyl)-3-azabicyclo[3.1.0]hexane]
- decrease in sperm count/g cauda epididymis ([1]; 13 mg/kg/day): −18%
- decreased mean body weight gain ([1]; 13 mg/kg/day): 7%
- decreases in fecundity and fertility indices ([1]; 13 mg/kg/day): −9%
- decrease in percent motile sperm ([1]; 39 mg/kg/day): −33%
- decreased mean body weight gain ([1]; 39 mg/kg/day): 9%
- decreased sperm count/g cauda epididymis ([1]; 39 mg/kg/day): −44%
- decreases in fecundity and fertility indices ([1]; 39 mg/kg/day): −9%
- decreased mean food consumption ([1]; 39 mg/kg/day, first week): −60%
- mean body weight loss ([1]; 39 mg/kg/day, initial week): -24 g
- NOEL general and reproductive toxicity ([1]; male, Crl:CD(SD) IGS BR, rat, in vivo, 14 weeks): 4 mg/kg/day
- QTc prolongation ([2]; 25 mg): no sustained or significant prolongation of QTc
- gender difference in Cmax or AUC ([2]; 25 mg): no difference in either Cmax or AUC values between the two sexes
- subjects with orthostatic hypotension ([2]; all subjects, 25 mg): 30%
- AUC(0-inf) ([2]; female, Females (N = 38)): 1590 ng·h/mL
- AUC(0-t) ([2]; female, Females (N = 38)): 1490 ng·h/mL
- Cmax ([2]; female, Females (N = 38)): 291 ng/mL
- Tmax ([2]; female, Females (N = 38)): 1.38 h
- half-life ([2]; female, Females (N = 38)): 3.73 h
- subjects with orthostatic hypotension ([2]; females, 25 mg): 28.9%
- AUC(0-inf) ([2]; male, Males (N = 32)): 1440 ng·h/mL
- AUC(0-t) ([2]; male, Males (N = 32)): 1360 ng·h/mL
- Cmax ([2]; male, Males (N = 32)): 273 ng/mL
- Tmax ([2]; male, Males (N = 32)): 1.27 h
- half-life ([2]; male, Males (N = 32)): 3.41 h
- subjects with orthostatic hypotension ([2]; males, 25 mg): 31.3%
- brain SERT occupancy ([3]; about 2 hours): approximately 48%
- brain SERT occupancy ([3]; about 7 hours): ~32%
- brain SERT occupancy ([3]; about 7 hours, listed as EB-1010): approximately 32%
- Mean (Range) SERT Occupancy, Mean ([3]; ~2 h): 48 (43-54) %
- Mean (Range) SERT Occupancy, Striatum ([3]; ~2 h): 48 (44-53) %
- Mean (Range) SERT Occupancy, Thalamus ([3]; ~2 h): 48 (41-55) %
- Mean (Range) SERT Occupancy, Mean ([3]; ~7 h): 32 (23-41) %
- Mean (Range) SERT Occupancy, Striatum ([3]; ~7 h): 32 (23-37) %
- Mean (Range) SERT Occupancy, Thalamus ([3]; ~7 h): 33 (22-44) %
- NOAEL at 14 days [4]: 100 mg/kg/day
